# From a melting point compilation (Tetko et al.; mined from patent text by program, amines drawn as free bases though some values may be those of a salt)
row,SMILES,melting point
1,CCOC(=O)Cc1c(-c2ccccc2)c2cc(C)c(C)cc2oc1=O,127 to 128 °C
2,OC1CSC(Oc2cccc(-c3ncccc3Cl)c2)C(O)C1O (configuration not stated),217 °C
3,Cc1nc(-n2cc(OCc3ccccc3)ccc2=O)sc1C(=O)NCc1ccccc1,166 to 167 °C
4,Cc1cc2[nH]c3cc(Cl)ncc3c(=O)n2n1,> 300 °C
5,CC(=O)NC1CCC(NC(=O)C2CC3c4cccc5c4c(cn5C(C)C)CC3N(C)C2)CC1 (configuration not stated),> 280 °C
6,CC(C)(C)C(NC(=O)c1ccc(Cl)cc1)Nc1c(Nc2ccccn2)c(=O)c1=O (configuration not stated),246 to 248 °C
7,COc1ccc(C(=O)Nc2ccc3ccc(Oc4cccc(Cl)c4)nc3n2)cc1,182 °C
8,Cc1cc(C)c(C(=O)c2c(C)cccc2C)c(OCC(O)CNC(C)C)c1 (configuration not stated),102 to 104 °C
9,CC(C)(CO)C(O)(Cn1cncn1)c1ccc(Cl)cc1 (configuration not stated),120 to 135 °C
10,CCCc1ccc(C=Nc2ccc(C#N)cc2)cc1,64.8 to 65.5 °C
11,NC(=O)c1ccc(-c2ccccc2OCC2CC2)[nH]c1=O,160 to 162 °C
12,CCCCCCCNC(=O)Nc1ccc(O)cc1C(=O)NCCC(c1ccccc1)c1ccccc1,161 to 162 °C
13,Cc1c(-c2ccc(C[C@H](NC(=O)c3c(Cl)cccc3Cl)C(=O)O)cc2)c(=O)n(C)c(=O)n1C,225 to 227 °C
14,COc1c(C)c(C)c(NC(=O)OC(C)(C)C)c(C)c1Br,159 to 161 °C
15,CN1C(=O)N(c2c(Cl)cccc2Cl)Cc2cnc(NCCc3ccccc3)nc21,148 to 151 °C
16,CCOC(=O)c1ccc(NC(=O)C=CC=C(c2ccc(Cl)cc2)c2ccc(Cl)cc2)cc1,216 to 218 °C
17,CCOCc1nc2c(N)nc3ccccc3c2n1NCC(C)C,137 to 140 °C
18,O=S(=O)(c1ccc2ccccc2c1)N1C[C@@H](S)C[C@@H]1COCc1ccccc1,79 to 80 °C
19,COc1ccc(-c2cc(-c3cc(C)ns3)c(=O)n(C)c2-c2ccncc2)cc1,195 to 198 °C
20,N#CCCNC1CCCC1,81 to 84 °C
21,CC(C)(C)OC(=O)Nc1ccc(CCO)cc1,104 to 105 °C
22,CC[C@@H]1O[C@](C#Cc2ccoc2)(C(F)(F)F)c2cc(Cl)ccc2NC1=O (relative stereo),169 to 170 °C
23,Cc1ccc(C(=O)c2ccc(CC(=O)O)n2C)s1,152 to 154 °C
24,Cc1ccc(NC=CS(=O)(=O)F)cc1,61 to 65 °C
25,CC(C)N1C(=O)c2ccccc2N(S(C)(=O)=O)S1(=O)=O,156 to 158 °C
26,O=C1c2c(Br)cccc2-n2cnc(C(=O)n3ccnc3)c2[C@@H]2CCCN12,215 to 217 °C

row,SMILES,melting point
1,CCOC(=O)c1c(C)nc(NCCCN(C)C)c2nccnc12,55 to 57 °C
2,NCC1Cc2cc(-c3ccccc3Cl)cc(F)c2O1 (configuration not stated),> 250 °C
3,CC(C)(C)OC(=O)N1CC[C@H](O)[C@H](F)C1 (relative stereo),48 °C
4,CCNC(=O)c1ccc(C=O)cc1,100 °C
5,CNC(=S)NCCOCc1c[nH]cn1,96 to 98 °C
6,COCc1cc(N)no1,49 to 52 °C
7,O=C1CCC(NC(=O)C(Cl)(Cl)Cl)c2ccsc21 (configuration not stated),167 to 171 °C
8,O=C(O)c1ccc(C=CC(=O)N2CCc3c([nH]c4ccccc34)C2c2ccc3c(c2)CCO3)nc1 (configuration not stated),183 °C
9,Nc1c(Cl)cc(C(O)CNCCCCCCOCCCc2ccc(C(=O)O)cc2)cc1Cl (configuration not stated),190 to 191 °C
10,O=C1N=c2cccc(OCCN3CCC(Cc4ccccc4)CC3)c2=NC1=O,244 to 245 °C
11,COC(=O)CC(c1ccc(F)cc1)C(C#N)C(=O)OC (configuration not stated),80.2 °C
12,N#Cc1ccc(C(Cl)(Cl)Cl)cc1C(Cl)(Cl)Cl,76 to 78 °C
13,OC1CSC(Oc2ccc(-c3ccsc3)nc2)C(O)C1O (configuration not stated),154 °C
14,Cc1ccc(C(=O)Nc2c(NC(=O)CN(C)CC3OCCO3)ccc3c2C(=O)c2ccccc2C3=O)cc1,156 to 157 °C
15,CCOC(=O)Cc1nc2cc(Cl)ccc2n1CC,44 to 45 °C
16,CN(C)c1cccc(CSC2NC(=S)NC2(C)C)c1 (configuration not stated),178 to 179 °C
17,C=Cc1ccc(COc2ccc(CSCCC(=O)O)cc2)cc1,135 to 136 °C
18,Cc1ccc(C(=O)c2ccc(C(=O)c3ccc(C)cc3)cc2)cc1,178 to 187 °C
19,CCCc1nc2c(N)nc3cc(OCCOCCOc4ccc5c(c4)nc(N)c4nc(CCC)sc45)ccc3c2s1,186 to 189 °C
20,CSC1=Nc2ccc(C(=O)c3cccnc3)cc2CN1,156 °C
21,C=CCC(=O)NCC(CO)c1cccc2ccc(OC)cc12 (configuration not stated),86 to 88 °C
22,CCCCCCCCCCCCCCCc1cc2cccc(C(=O)O)c2[nH]1,93 to 99 °C
23,CNC(=O)c1cc(N2CCN(C)CC2)ncc1Br,122 to 125 °C
24,COc1ccc(-c2c(Cl)c(CN3C(=O)CCC3=O)nc3sc4c(c23)CC(C)(C)C(=O)C4(C)C)cc1,214 to 216 °C
25,c1ccc(C(CC2=NCCN2)c2ccccc2)cc1,173 to 175 °C
26,CNC(=O)c1nc2ccc3c(c2c(-c2ccc4c(c2)OCO4)c1C)OCO3,141 to 146 °C
